{"source": "patent US20010053796A1", "about": "“Delta-aminolevulinic acid for prevention and treatment of infection microorganisms and parasite” (priority 2000, published 2001)", "key": {"[1]": {"tested_on": "RTG-2 (Rainbow Trout Gonad)", "details": "24 h", "description": "(§1) δ-aminolevulinic acid feed were prepared to 1.0 M concentration (0. 167 g/mL HBSS) and diluted by 10-fold dilution method. 100 μl of each fish cell line suspension of 2.5×10^5 were placed into 96-well microplate and then, 100 μl of each of the resulting diluted solution, 4 well/dilution unit, were added respectively. Fish cell lines, which were used for this cell toxicity experiment of δ-aminolevulinic acid, were RTG-2 (Rainbow Trout Gonad), FHM (Fathead Minnow Epithelioma) and CHSE (Chinook Salmon Embryo) lotted out from Dr. M. Yoshimizu of the Department of Fisheries, Hokkaido University, Japan. For these experimental cells, 100 U/mL penicillin (Sigma), 100 μl/mL streptomycin (Sigma) and MEM media supplemented with 5% fetal bovine serum (FBS, Gibco) for cell culture were used. Cultured cells in 96-well microplate was incubated for 3 hrs at 15° C. and δ-aminolevulinic acid were added to wells at amounts of 100 μl of 0, 1.0, 10, 50 and 100 mM and incubated for 24 hrs at 18° C. As a control group, instead of δ-aminolevulinic acid, HBSS was added at the same amount. […] Absorbance was measured with an ELISA reader at 570 μl."}, "[2]": {"tested_on": "Streptococcus sp.", "assay": "Prevention effect for artificial infection (abdominal injection of bacteria)", "type": "in vivo, Bastardhalibut", "details": "for Mortality during Cultivation: dead of 20 fish", "protocol": "The water temperature was maintained at 20° C. (±2° C. ) throughout the experiment.\nAs the same method of above Experiment 1, fishes of both control group and experiment group were prepared and artificially infected by direct abdominal injection of Edwardsiella tarda 10^5 CFU per 1 fish. Each experimental fish was moved to fish tanks for monitoring and monitored for mortality according to infection for 2 weeks and viability after 2 weeks.\nBastardhalibut and Sebastes schlegeli were infected by Streptococcus sp. by abdominal injection with the same method of fish breeding, δ-aminolevulinic acid treatment and artificial infection carried out in Experiment 1 and 2. Each experimental fish was moved to fish tanks for monitoring and monitored for mortality according to infection for 2 weeks. […] The treated group, with δ-aminolevulinic acid by tank administration method and oral administration method, has shown viability of higher than 65%."}, "[3]": {"tested_on": "Scutica", "assay": "Application to Scutica-infected seedling nursery", "type": "in vivo, flatfish", "details": "30 ppm formalin day 1, then 1 ppm for 2 hrs on days 2 and 3", "protocol": "Seedling was produced in flatfish seedling nursery and flatfish fry in seedling nursery, where marketing had stopped due to the infection of Scutica in a marketing stage (the length 5˜6 cm). They were treated with δ-aminolevulinic acid made by the inventors. Seriously infected fish were collected from seedling nursery and contained in water tanks and treated. On the first day, the fish were treated with 30 ppm formalin and, on the second and third day, were treated δ-aminolevulinic acid at concentration of 1 ppm for 2 hrs. […] Cultivation in a water tank of a fish farm where the ozone treatment system, which can control pathogenic organisms in seawater for cultivating, was applied has shown possibility of normal cultivation."}, "[4]": {"tested_on": "Staphylococcus epidermis", "assay": "Prevention effect for artificial infection (abdominal injection of bacteria)", "type": "in vivo, Bastardhalibut", "details": "for Mortality during Cultivation: dead of 20 fish", "protocol": "The water temperature was maintained at 20° C. (±2° C. ) throughout the experiment. […]\nBastardhalibut and Sebastes schlegeli were infected by […] Staphylococcus epidermis through abdominal injection with the same method of fish breeding; δ-aminolevulinic acid treatment and artificial carried out in Experiment 1 and 2. Each experimental fish was moved to fish tanks for monitoring and monitored for mortality according to infection for 2 weeks. […] The treated group, with δ-aminolevulinic acid by tank administraion method and oral administration method, has shown high viability."}, "[5]": {"tested_on": "FHM (Fathead Minnow Epithelioma)", "details": "24 h", "description": "as §1"}}}
{"smiles": "NCC(=O)CCC(=O)O", "note": "[δ-aminolevulinic acid]", "values": [{"measurement": "safe range of toxicity", "setting": "[1]", "value": "below 10 mM"}, {"measurement": "Viability", "setting": "[2]; orally, 0.1 ppm in feed", "value": 65, "unit": "%"}, {"measurement": "Mortality during Cultivation", "setting": "[2]; orally, 0.1 ppm in feed", "value": 7}, {"measurement": "Viability", "setting": "[2]; orally, 1.0 ppm in feed", "value": 65, "unit": "%"}, {"measurement": "Mortality during Cultivation", "setting": "[2]; orally, 1.0 ppm in feed", "value": 7}, {"measurement": "Viability", "setting": "[2]; orally, 10 ppm in feed", "value": 80, "unit": "%"}, {"measurement": "Mortality during Cultivation", "setting": "[2]; orally, 10 ppm in feed", "value": 4}, {"measurement": "Viability", "setting": "[2]; orally, 100 ppm in feed", "value": 85, "unit": "%"}, {"measurement": "Mortality during Cultivation", "setting": "[2]; orally, 100 ppm in feed", "value": 3}, {"measurement": "Viability", "setting": "[2]; to fish tanks, 0.01 ppm", "value": 60, "unit": "%"}, {"measurement": "Mortality during Cultivation", "setting": "[2]; to fish tanks, 0.01 ppm", "value": 8}, {"measurement": "Viability", "setting": "[2]; to fish tanks, 0.1 ppm", "value": 65, "unit": "%"}, {"measurement": "Mortality during Cultivation", "setting": "[2]; to fish tanks, 0.1 ppm", "value": 7}, {"measurement": "Viability", "setting": "[2]; to fish tanks, 1.0 ppm", "value": 75, "unit": "%"}, {"measurement": "Mortality during Cultivation", "setting": "[2]; to fish tanks, 1.0 ppm", "value": 5}, {"measurement": "Viability", "setting": "[2]; to fish tanks, 10 ppm", "value": 85, "unit": "%"}, {"measurement": "Mortality during Cultivation", "setting": "[2]; to fish tanks, 10 ppm", "value": 3}, {"measurement": "examination of infection through sampling of fish body", "setting": "[3]; after 2 weeks of cultivation", "value": "no infection by Scutica"}, {"measurement": "vitality of treated fish", "setting": "[3]; after 1 day of treatment", "value": "highly improved"}, {"measurement": "Viability", "setting": "[4]; orally, 0.1 ppm in feed", "value": 50, "unit": "%"}, {"measurement": "Mortality during Cultivation", "setting": "[4]; orally, 0.1 ppm in feed", "value": 10}, {"measurement": "Viability", "setting": "[4]; orally, 1.0 ppm in feed", "value": 55, "unit": "%"}, {"measurement": "Mortality during Cultivation", "setting": "[4]; orally, 1.0 ppm in feed", "value": 9}, {"measurement": "Viability", "setting": "[4]; orally, 10 ppm in feed", "value": 70, "unit": "%"}, {"measurement": "Mortality during Cultivation", "setting": "[4]; orally, 10 ppm in feed", "value": 6}, {"measurement": "Viability", "setting": "[4]; orally, 100 ppm in feed", "value": 80, "unit": "%"}, {"measurement": "Mortality during Cultivation", "setting": "[4]; orally, 100 ppm in feed", "value": 4}, {"measurement": "Viability", "setting": "[4]; to fish tanks, 0.01 ppm", "value": 55, "unit": "%"}, {"measurement": "Mortality during Cultivation", "setting": "[4]; to fish tanks, 0.01 ppm", "value": 9}, {"measurement": "Viability", "setting": "[4]; to fish tanks, 0.1 ppm", "value": 65, "unit": "%"}, {"measurement": "Mortality during Cultivation", "setting": "[4]; to fish tanks, 0.1 ppm", "value": 7}, {"measurement": "Viability", "setting": "[4]; to fish tanks, 1.0 ppm", "value": 65, "unit": "%"}, {"measurement": "Mortality during Cultivation", "setting": "[4]; to fish tanks, 1.0 ppm", "value": 7}, {"measurement": "Viability", "setting": "[4]; to fish tanks, 10 ppm", "value": 75, "unit": "%"}, {"measurement": "Mortality during Cultivation", "setting": "[4]; to fish tanks, 10 ppm", "value": 5}, {"measurement": "safe range of toxicity", "setting": "[5]", "value": "below 10 mM"}]}
